# Structures can show the parent of a compound that is named as a salt.
# Test system: tumor cells derived from patients who were responsive to treatment with irinotecan
# Assay: xenograft of patient-derived tumor cells in SCID mice treated with irinotecan
# Format: in vivo
# Conditions: SCID mice with established xenograft tumors, injected with 200 mg/kg of irinotecan
# Protocol: Positive expression also was evaluated using a xenograft array. SCID mice were injected with tumor cells derived from patients who were responsive to treatment with irinotecan, and the tumors were allowed to grow in the mice. Once the tumors were established, the mice were injected with 200 mg/kg of irinotecan, and the mice were monitored to observe responsiveness to the drug. […] Prior to treatment with the drug, samples of the tumors were extracted from the mice and used to make a TMA.
structure (smiles),measurement,value
"CCc1c2c(nc3ccc(OC(=O)N4CCC(N5CCCCC5)CC4)cc13)-c1cc3c(c(=O)n1C2)COC(=O)[C@]3(O)CC [irinotecan, Irinotecan hydrochloride]",responsiveness to the drug: effect on tumors formed in the SCID mice,reduced or eliminated
